Earlier results, collected in EP4062897A1, “HAIR CARE COMPOSITION AND PREPARATION METHOD THEREFOR” (BioRight Worldwide Company Limited, priority 2019, dated 2021).

Conditions: in aqueous solution, typical value

- half-life: 14 days
SMILES: NC(=O)c1ccc[n+]([C@@H]2O[C@H](COP(=O)([O-])O)[C@@H](O)[C@H]2O)c1 [nicotinamide mononucleotide, Nicotinamide mononucleotide]
